Assay results published in PubChem BioAssay (NCI).
“And” between values parts separate entries of the source, which are not always exact repeats. Equal values may be shown once.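 1) Cells in 96-well plates. 2) Compound, 48 h, 5 concentrations. 3) Linear interpolation between surrounding doses. 4) Unreached endpoint = highest concentration. GI50 = concentration required for 50% inhibition of growth. TGI marks complete inhibition of growth.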

How the values were obtained:
Test in all cases: NCI tumour cell line growth inhibition, 48 h
786-0 renal = test system: 786-0 renal
A498 renal = test system: A498 renal
CCRF-CEM leukemia = test system: CCRF-CEM leukemia
KM12 colon = test system: KM12 colon
MALME-3M melanoma = test system: MALME-3M melanoma
NCI-H23 lung = test system: NCI-H23 lung
OVCAR-8 ovarian = test system: OVCAR-8 ovarian
RPMI-8226 leukemia = test system: RPMI-8226 leukemia
SF-295 CNS = test system: SF-295 CNS
SNB-19 CNS = test system: SNB-19 CNS

Row | Structure (SMILES) | TGI (786-0 renal) | TGI (A498 renal) | TGI (CCRF-CEM leukemia) | TGI (KM12 colon) | TGI (MALME-3M melanoma) | TGI (NCI-H23 lung) | TGI (OVCAR-8 ovarian) | TGI (RPMI-8226 leukemia) [µM] | TGI (SF-295 CNS) | TGI (SNB-19 CNS) | GI50 (786-0 renal) | GI50 (A498 renal) | GI50 (CCRF-CEM leukemia) | GI50 (KM12 colon) | GI50 (MALME-3M melanoma) | GI50 (NCI-H23 lung) | GI50 (OVCAR-8 ovarian) | GI50 (RPMI-8226 leukemia) | GI50 (SF-295 CNS) | GI50 (SNB-19 CNS)
1 | O=C1C2c3[nH]c4ccccc4c3C3CCSCC3C2C(=O)N1c1ccccc1 (centres undefined) | > 100 µM | > 100 µM | > 100 µM | > 100 µM | > 100 µM | > 100 µM | > 100 µM | > 100 | > 100 µM | > 100 µM |  |  |  |  |  |  |  |  |  | 
2 | c1ccc(Oc2c3ccccc3nc3ccccc23)cc1 | 10.7 µM | 25.8 µM | > 100 µM | 11 µM | 8.71 µM | 14.3 µM | 24.8 µM | 24.6 | > 100 µM | 18 µM | 3.08 µM | 4.49 µM | 1.12 µM | 3.64 µM | 2.15 µM | 3.71 µM | 6.22 µM | 4.75 µM | 5.03 µM | 5.35 µM
3 | O=C1NC(=O)[C@@H](c2cn3c4c(cccc24)CCC3)[C@@H]1c1c[nH]c2ccccc12 | > 10 µM and 18.8 µM | > 2.68 µM and 3.22 µM | > 10 µM and 41.2 µM | > 10 µM and 6.15 µM | > 10 µM and 26.6 µM | > 10 µM and 16.8 µM | > 10 µM and 14.3 µM | > 93.5 | > 10 µM and 5.08 µM | > 10 µM and 22.6 µM | 0.544 µM and 0.809 µM | 0.283 µM and 0.292 µM | 0.288 µM and 0.429 µM | 0.382 µM and 0.433 µM | 0.987 µM and 0.434 µM | 0.545 µM and 0.53 µM | 0.492 µM and 0.561 µM | 0.379 µM and 2.93 µM | 0.33 µM and 0.26 µM | 0.466 µM and 0.601 µM
4 | CCN(CC)c1ccc2[nH]c3c(C(N)=O)cc(=O)c(=O)c=3oc2c1 | > 100 µM | 9.28 µM | 8.19 µM | 11.3 µM | 2.96 µM | 5.17 µM | > 100 µM | 4.7 | 6.35 µM | 24.5 µM | 2.42 µM | 1.92 µM | 1.9 µM | 2.94 µM | 1.16 µM | 1.4 µM | 2.05 µM | 0.383 µM | 1.57 µM | 2.68 µM
5 | CC(=O)C(C(=N)C#N)C(=O)Nc1ccccc1 (centres undefined) | > 100 µM | > 100 µM | > 100 µM | > 100 µM | > 100 µM | > 100 µM | > 100 µM | > 100 | > 100 µM | > 100 µM |  |  |  |  |  |  |  |  |  | 
6 | O=C(CCl)Nc1ccccc1SCc1cc(Cl)cc2c1OCOC2 | 26.4 µM | 26.2 µM | 5.35 µM | 27.4 µM | 5.96 µM | 31.2 µM | 30.2 µM | 40.6 | 41.9 µM | 28.9 µM | 12.6 µM | 12.9 µM | 2.18 µM | 13.8 µM | 2.3 µM | 9.58 µM | 13 µM | 6.96 µM | 20 µM | 14.1 µM
7 | CCOC(=O)c1[nH]c2cccc3c2c1CC(Br)C3=O (centres undefined) | 17.3 µM | 32.3 µM | > 100 µM | 30.5 µM | 28.2 µM | 35.9 µM | 41.5 µM | 26.7 | 32.6 µM | 30.7 µM |  |  |  |  |  |  |  |  |  | 
8 | O=C(CSc1nc2ccc([N+](=O)[O-])cc2[nH]1)Nc1cccc(C(F)(F)F)c1 | 13.1 µM | 3.52 µM | > 60.1 µM | 8.08 µM | 6.66 µM | 8.81 µM | 15.8 µM | > 23.6 | 5.65 µM | 12.7 µM | 2.98 µM | 0.963 µM | 2.58 µM | 2.2 µM | 1.48 µM | 1.98 µM | 2.93 µM | 1.37 µM | 1.73 µM | 2.71 µM
9 | C[C@@H](Oc1cc(-c2cnn(C3CCNCC3)c2)cnc1N)c1c(Cl)ccc(F)c1Cl | 8.94 µM | 5.34 µM | 5.13 µM | > 10 µM | 2.61 µM | > 10 µM | > 10 µM | 8.64 | > 10 µM | > 10 µM | 2.72 µM | 1.51 µM | 0.621 µM | 0.053 µM | 1.22 µM | 0.93 µM | 2.86 µM | 1.91 µM | 0.276 µM | 2.24 µM
10 | Cc1ccc(C2=[N+]([O-])c3ccccc3C2=O)cc1 | 69.4 µM | > 100 µM | 25.9 µM | 50.9 µM | 41 µM | > 31.6 µM | 36 µM | > 72 | > 72.5 µM | > 77.2 µM |  |  |  |  |  |  |  |  |  | 
11 | COc1cccc(-c2nc(-c3ccc(NS(=O)(=O)c4ccccc4)cc3)[nH]c2-c2ccnc(Br)c2)c1 | > 100 µM | 5.03 µM | > 100 µM | 8.74 µM | 5.22 µM | 17.2 µM | > 100 µM | 8.31 | 4.35 µM | > 100 µM | 2.98 µM | 1.25 µM | 3.14 µM | 2.65 µM | 1.76 µM | 3.06 µM | 3.33 µM | 2.49 µM | 1.85 µM | 4.03 µM
12 | Brc1nc2c3ccccc3ncn2c1Br | > 100 µM | > 100 µM | > 100 µM | > 100 µM | 33.2 µM | 56.1 µM | > 100 µM | > 100 | > 100 µM | > 100 µM |  |  |  |  |  |  |  |  |  | 
13 | Clc1ccc(N2COOC3(OOC2)C2CC4CC(C2)CC3C4)cc1 | 5.73 µM | > 100 µM |  | > 100 µM | > 100 µM | 31.6 µM | > 100 µM | 14.7 | 17.9 µM | > 100 µM | 1.21 µM | 11.9 µM | 2.81 µM | 2.02 µM | 14.4 µM | 11.5 µM | 14.4 µM | 4.28 µM | 2.99 µM | > 40 µM
14 | O=C1NC(=O)C2=C1CCC2O (centres undefined) | > 100 µM | > 100 µM | > 100 µM | > 100 µM | > 100 µM | > 100 µM | > 100 µM | > 100 | > 100 µM | > 100 µM |  |  |  |  |  |  |  |  |  | 
15 | O=P(Oc1ccccc1)(Oc1ccccc1)C(O)c1ccccc1 (centres undefined) | > 100 µM | > 100 µM | > 100 µM | > 100 µM | > 100 µM | > 100 µM | > 100 µM | > 100 | > 100 µM | > 100 µM | > 100 µM | 34.8 µM | > 100 µM | 51 µM | 4.65 µM | > 100 µM | > 100 µM | 33.3 µM | 29.3 µM | > 100 µM
